Each compound was assayed against T1, GABAB receptor (GABABR1a/GABABR2 heterodimer) (Homo sapiens, UniProt O75899+Q9UBS5) (assay: [35S]-GTPγS binding assay, potency of PAM (GABA dose-response curves with and without test compound)). Settings: potency of the positive allosteric modulator; GABA dose-response in presence of test compound.
T1 construct: expressed in transfected cells
Type: biochemical
Procedure, shortened: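 Membranes from human GABABR1a/GABABR2-expressing cell lines, one with a GABABR1a-Gαqi5mut fusion, were incubated at 30 °C for 45 min, pH 7.4, with 10 μM GDP and 0.53 nM [35S]-GTPγS. GABA (0.1 nM–1 mM) was added with or without PAM, and EC50 was obtained by 4-parameter logistic fit after filtration and scintillation counting.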

T1 sequence (Q9UBS5 15-961 limits assumed): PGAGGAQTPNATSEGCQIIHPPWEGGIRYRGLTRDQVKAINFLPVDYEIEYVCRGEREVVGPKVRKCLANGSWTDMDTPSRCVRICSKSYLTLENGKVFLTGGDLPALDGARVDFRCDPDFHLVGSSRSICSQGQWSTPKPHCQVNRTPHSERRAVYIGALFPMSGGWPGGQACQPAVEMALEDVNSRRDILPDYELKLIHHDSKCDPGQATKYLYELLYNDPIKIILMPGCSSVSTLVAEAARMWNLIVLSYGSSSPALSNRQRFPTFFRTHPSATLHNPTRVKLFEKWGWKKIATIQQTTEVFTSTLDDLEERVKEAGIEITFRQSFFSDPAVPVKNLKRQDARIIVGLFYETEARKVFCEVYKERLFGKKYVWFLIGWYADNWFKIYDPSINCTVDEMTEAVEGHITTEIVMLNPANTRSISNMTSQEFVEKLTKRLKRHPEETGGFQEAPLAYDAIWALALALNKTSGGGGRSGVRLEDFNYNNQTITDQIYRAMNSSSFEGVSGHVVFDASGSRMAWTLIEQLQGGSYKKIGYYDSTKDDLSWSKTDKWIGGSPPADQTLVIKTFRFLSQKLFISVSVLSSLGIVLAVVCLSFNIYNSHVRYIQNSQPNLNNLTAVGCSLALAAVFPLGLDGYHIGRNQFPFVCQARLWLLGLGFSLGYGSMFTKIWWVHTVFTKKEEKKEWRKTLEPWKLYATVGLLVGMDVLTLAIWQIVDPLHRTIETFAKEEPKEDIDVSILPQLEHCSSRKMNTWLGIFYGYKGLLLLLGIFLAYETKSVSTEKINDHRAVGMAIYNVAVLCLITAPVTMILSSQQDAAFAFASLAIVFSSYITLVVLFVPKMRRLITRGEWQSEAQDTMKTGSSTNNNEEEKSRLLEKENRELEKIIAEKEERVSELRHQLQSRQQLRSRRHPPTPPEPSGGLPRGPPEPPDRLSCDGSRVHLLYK
T1 sequence (O75899 42-941): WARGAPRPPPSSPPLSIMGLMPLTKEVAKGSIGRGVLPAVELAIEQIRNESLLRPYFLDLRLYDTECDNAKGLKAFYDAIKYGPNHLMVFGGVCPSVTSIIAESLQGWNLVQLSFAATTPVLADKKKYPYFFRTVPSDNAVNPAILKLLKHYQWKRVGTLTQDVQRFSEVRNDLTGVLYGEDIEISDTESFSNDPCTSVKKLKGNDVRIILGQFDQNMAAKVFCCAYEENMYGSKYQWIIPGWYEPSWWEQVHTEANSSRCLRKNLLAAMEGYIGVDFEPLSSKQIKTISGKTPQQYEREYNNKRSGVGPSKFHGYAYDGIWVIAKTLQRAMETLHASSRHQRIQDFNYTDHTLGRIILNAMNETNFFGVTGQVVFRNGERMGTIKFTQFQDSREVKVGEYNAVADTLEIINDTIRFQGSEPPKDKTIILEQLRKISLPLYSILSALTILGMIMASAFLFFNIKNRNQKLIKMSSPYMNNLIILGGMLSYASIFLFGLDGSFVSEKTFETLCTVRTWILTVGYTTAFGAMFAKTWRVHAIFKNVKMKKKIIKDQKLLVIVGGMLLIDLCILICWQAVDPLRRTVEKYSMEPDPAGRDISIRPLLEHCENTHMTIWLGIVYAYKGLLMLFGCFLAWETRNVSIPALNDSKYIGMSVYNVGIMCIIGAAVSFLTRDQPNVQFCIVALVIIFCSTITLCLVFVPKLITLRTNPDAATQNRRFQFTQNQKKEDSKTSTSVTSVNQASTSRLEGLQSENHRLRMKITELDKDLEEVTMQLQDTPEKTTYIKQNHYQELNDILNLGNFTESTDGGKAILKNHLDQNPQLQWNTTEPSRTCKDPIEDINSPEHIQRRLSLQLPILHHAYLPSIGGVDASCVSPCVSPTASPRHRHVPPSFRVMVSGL

In order of falling EC50:
1. CCCn1c(=O)n(Cc2ccc(Cl)cc2Cl)c(=O)c2c1nc(CC)n2C [Example 60, 1-(2,4-Dichlorobenzyl)-8-ethyl-7-methyl-3-propyl-3,7-dihydro-1H-purine-2,6-dione]  17.2 µM
2. CCc1nc2c(c(=O)n(Cc3ccc(Cl)cc3)c(=O)n2Cc2ccc(Cl)cc2)n1C [Example 13, 1,3-Bis(4-chlorobenzyl)-8-ethyl-7-methyl-3,7-dihydro-1H-purine-2,6-dione]  5.2 µM
3. CCc1nc2c(c(=O)n(Cc3ccc(Cl)cc3)c(=O)n2CC(=O)C(C)(C)C)n1C [Example 4, 1-(4-Chlorobenzyl)-3-(3,3-dimethyl-2-oxobutyl)-8-ethyl-7-methyl-3,7-dihydro-1H-purine-2,6-dione]  1.6 µM
4. CCc1nc2c(c(=O)n(Cc3ccc(Cl)c(Cl)c3)c(=O)n2CC(=O)C(C)(C)C)n1C [Example 40, 1-(3,4-Dichlorobenzyl)-3-(3,3-dimethyl-2-oxobutyl)-8-ethyl-7-methyl-3,7-dihydro-1H-purine-2,6-dione]  0.6 µM

Source: patent US20090023704A1, “Novel Compounds 737” (ASTRAZENECA AB, priority 2007, published 2009)
